Measurements as given in patent publication US6303621A, “Method for treating cancers using a diiodo thyronine analogue having no significant hormonal activity and a vinca alkaloid and compositions comprising the same” (priority 1999, dated 2001).
“Also recorded” adds a separate entry of the source.

Legend:
[1] = test system: MDA-MB-231 human mammary cancer cells; test: Cell growth kinetics, median effect and isobologram; format: cell-based; conditions: 0.75 μM DIME (or DIPE) or 1-2 nM vincristine alone
Protocol: (§1) c. MDA-MB-231 human mammary cancer cells were cultured and treated as reported previously by Mendeleyev et al., International Journal of Oncology 10:689-695 (1997) and Zhen et al., International Journal of Oncology 10:689-695 (1997). For the assay of cell growth kinetics cells, were seeded into 2cm^2 wells (24-well plates) at a density of 8×10^3 /cm^2 at the time of seeding. Vincristine (or vinblastine) and DIME (or DIPE) were added from DMSO dilutions (1-2 μl/ 500 μl culture mediim) either from separate drug solutions or for the construction of median effect plot (FIG. 1) from a pre-made mixture of both drugs (e.g. 0.75 μM DIME+2 nM vincristine) and simultaneous dilutions thereof (Chou et al. Eur. J. Biochem. 115: 207-216 (1981)). The cultures were incubated at 37° C. for 4 days and growth rates, leading to near confluency in drug-free controls, were monitored by cell counting in a haemocytometer after detachment by trypsin treatment Mendeleyev et al., International Journal of Oncology 10:689-695 (1997) and Zhen et al., International Journal of Oncology 10:689-695 (1997). Mathematical analysis of growth curves and median effects and isobolograms were carried out by published procedures (Chou et al. J. Theor. Biol. 65: 345-356 (1977), Chou et al. Eur. J. Biochem. 115: 207-216 (1981) and Chou et al. Adv. in Enzyme Regulation 22:27-55 (1984)) and error bars indicate SD=Σx^2 +L -(Σx)^2 /n where X is the numerical results with n=3-5.
Kinetics of vincristine-DIME interactions: Interpretation of conventional isobolograms, consisting of plots of I50 values of two drugs alone and in combination is valid only if it is proven kinetically that both drugs bind at mutually exclusive sites.
Isobologram analysis of the combined action of DIME and vincristine is illustrated in FIG. 2, and it is evident that the action of the two drugs in combination exceed an additive effect, which is depicted by a concave curve, contrasting with additive action, which would display a straight line connecting the I50 values for each drug alone (dotted line in FIG. 2). […]

[2] = test system: MDA-MB-231 human mammary cancer cells; test: Colony formation (cell killing); format: cell-based
Protocol: as §1
e. Colony formation was quantitated as reported by. Each colony of 50 cells is the outgrowth from one cell, plated 10 days before colony counting.

[3] = test system: DIME-tolerant cells (DR6, DR7); test: Cell growth of DIME-tolerant cells; format: cell-based, human
Protocol: as §1, with “Mathematical analysis of growth curves and median effects and isobolograms were carried out by published procedures (Chou et al. J. Theor. Biol. 65: 345-356 (1977), Chou et al. Eur. J. Biochem. 115: 207-216 (1981) and Chou et al. Adv. in Enzyme Regulation 22:27-55 (1984)) and error bars indicate SD=Σx^2 +L -(Σx)^2 /n where X is the numerical results with n=3-5.” left out

[4] = test system: caspase 3; test: Caspase 3 assay in drug-treated cells; format: cell-based, human; conditions: 0.75 μM DIME or 2 nM vincristine alone, 3 days
Protocol: g. Caspase 3 assay. MDA 231 cells were grown for 3 days in the absence of drugs (control) or in the presence of 0.75 μM DIME, or in the presence of 2 nM vincristine, or in the presence of both drugs. After harvesting and washing the cells with PBS, they were lysed in a lysis buffer (10 mM HEPES, 5 mM DTT, 2 mM EDTA, 1 mM PMSF, 0.1% CHAPS, 20 μg/ml each of aprotinin, leupeptin, pepstatin, pH 7.4), and were frozen and thawed 3 times. […] Each cell extract was incubated at room temperature with and without preincubation with the caspase inactivator DEVD-CMK. The difference of fluorescence was plotted against time. The fluorescence was calibrated with the fluorophore AFC.

[5] = test system: caspase 3; test: Caspase 3 in cell-free extracts treated with drugs; format: biochemical; conditions: results not shown
[6] = test system: human cancer cells; test: Cytostatic / cytocidal activity of DIME analogues on human cancer cells; format: cell-based
Description: Such tests may also screen for the ability of a particular compound to inhibit malignant tumor cell growth in vitro or in vivo or abolish tumorigenicity of malignant cells.
As will be appreciated by the skilled artisan, many varieties of malignant tumor cell cultures and cell lines may be used to screen for activity, including but not limited to HL-60, HT-144, E-ras-20, DU-145, MDA-168, MCF-7, 855-2 and MDA-MB-231. Of course, other in vitro and/or in vivo assays as will be apparent to the skilled artisan to screen for anti-tumor and/or anti-cancer activity may also be employed to identify effective diiodo thyronine analogues useful in the present invention.

[7] = test system: tumor cells; test: Tumor cell apoptosis and micronucleation; format: cell-based
[8] = test system: nontumorigenic cells; test: DIME uptake / permeation in nontumor cells; format: cell-based; conditions: versus malignant counterparts
[9] = test system: tadpole metamorphosis; conditions: in vivo; cited from earlier work
[10] = test system: DIME-tolerant clones; test: DIME uptake by DIME-tolerant clones; conditions: DIME-tolerant clones grown in 1.5 μM DIME
Protocol: DIME-tolerant clones DR6and DR 7 were isolated by incubation of cells in a mediim containing 1.5 μM DIME for 11 days. At that time surviving colonies were picked with the use of cloning rings and plated for growth in fresh mediim still containing 1.5 μM DIME. After two weeks of growth in the presence of drug the cells were aliquoted and frozen. For each experiment a vial of frozen cells was thawed, the cells were plated in the absence of drug, and incubated for 2-3 days in drug-free mediim.

## COC(=O)c1cc(I)c(Oc2ccc(OC)cc2)c(I)c1 [DIME, methyl 3,5-diiodo-4-(4'-methoxyphenoxy) benzoate]
[1]
  Growth rate with single drug: do not elicit effects that exceed the SD of average cell growth rates; also recorded: fall within SD values
[2]; FIG. 4a
  Inhibition of colony formation, DIME versus DIPE: equivalency; also recorded: Equivalent effectivity
[2]; FIG. 8, parent (wild type) cell line
  Reduction of colony formation in parent cell line (factor): 10^3
[3]; DIME removed
  Doubling time of DIME-tolerant cells after removal of DIME: 40 to 45 h
[3]; in the presence of 1.5 μM DIME, cancer cells 20 hrs
  Doubling time of DIME-tolerant cells: 70 to 78 h
[4]
  Activation of caspase 3, single drug: small rate of caspase 3 activity
[5]
  Caspase 3 increase in cell-free extracts: do not show an increase in caspase 3
[6]
  Cytostatic and cytocidal activity in cellular assays: highly active
  Growth of malignant cell types: inhibit the growth of a variety of malignant cell types
[7]
  Tumor cell apoptosis / micronucleation: induce tumor cell apoptosis preceded by micronucleation
[8]
  DIME uptake / permeability of nontumor cells: impermeable to DIME; also recorded: take up significantly less DIME
[9]
  Metabolic or cell differentiating activity (tadpole metamorphosis): no significant metabolic or cell differentiating activity
[10]
  Reduction of DIME uptake: 50%
